Data taken from patent publication US20240132431A1, “METHOD FOR ALKYLATING ACIDIC FUNCTIONAL GROUP” (Chugai Seiyaku Kabushiki Kaisha, priority 2021, published 2024).

Target: T1, Bcl-2 protein (Recombinant Human Bcl-2 Protein) (Homo sapiens, UniProt P10415)
T1 construct: purchased Novus NBP2-34889
Test: Binding evaluation of mixture library compounds to Bcl-2 using AS-MS (affinity selection mass spectrometry)
How it was run: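 Readout is ASMS Ratio (%), (A−C)/B×100, from reversed-phase LC/MS of SEC-passed extracts, with protein-free unfiltered standard (B) and protein-free SEC blank (C). Recombinant human Bcl-2 at 20 μM final met ~1200 pooled compounds at […] each for 1 h, 23° C., dark, in Tris-HCl pH 7.4 buffer.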

T1 sequence (P10415 whole entry): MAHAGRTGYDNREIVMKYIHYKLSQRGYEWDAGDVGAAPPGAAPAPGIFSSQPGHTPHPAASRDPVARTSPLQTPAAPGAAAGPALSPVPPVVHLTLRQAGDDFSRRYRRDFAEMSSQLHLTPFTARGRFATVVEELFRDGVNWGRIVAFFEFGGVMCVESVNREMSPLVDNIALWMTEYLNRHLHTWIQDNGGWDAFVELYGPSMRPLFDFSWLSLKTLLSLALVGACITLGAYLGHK

| SMILES | ASMS ratio (%) (n = 1) | ASMS ratio (%) (n = 2) |
| --- | --- | --- |
| CCOc1cncc(C#Cc2cc(C(=O)N3CCN(c4ccc(C(=O)NS(=O)(=O)C(C)(C)C)cc4)CC3)cc(C(F)(F)F)c2)c1 [B2L042-01, N-tert-Butylsulfonyl-4-[4-[3-[2-(5-ethoxypyridin-3-yl)ethynyl]-5-(trifluoromethyl)benzoyl]piperazin-1-yl]benzamide] | 0.0% | 0.0% |
| CCOc1cccc(-c2cnn(-c3cc(C(=O)N4CCN(c5ccc(C(=O)NS(=O)(=O)C(C)(C)C)cc5)CC4)cc(C(F)(F)F)c3)c2)c1 [B2L043-01, N-tert-Butylsulfonyl-4-[4-[3-[4-(3-ethoxyphenyl)pyrazol-1-yl]-5-(trifluoromethyl)benzoyl]piperazin-1-yl]benzamide] | 0.0% | 0.0% |
| CCOc1cccc(-c2ccccc2CN2CCN(c3ccc(C(=O)NS(=O)(=O)C(C)(C)C)cc3)CC2)c1 [B2L045-01, N-tert-Butylsulfonyl-4-[4-[[2-(3-ethoxyphenyl)phenyl]methyl]piperazin-1-yl]benzamide] | 0.0% | 0.0% |
| CCOc1cncc(-c2ccccc2CN2CCN(c3ccc(C(=O)NS(=O)(=O)C(C)(C)C)cc3)CC2)c1 [B2L046-01, N-tert-Butylsulfonyl-4-[4-[[2-(5-ethoxypyridin-3-yl)phenyl]methyl]piperazin-1-yl]benzamide] | 0.0% | 0.0% |
| CCOc1cccc(-c2ccc(CN3CCN(c4ccc(C(=O)NS(=O)(=O)C(C)(C)C)cc4)CC3)cc2C)c1 [B2L047-01, N-tert-Butylsulfonyl-4-[4-[[4-(3-ethoxyphenyl)-3-methylphenyl]methyl]piperazin-1-yl]benzamide] | 0.0% | 0.0% |
| CCOc1cncc(-c2ccc(CN3CCN(c4ccc(C(=O)NS(=O)(=O)C(C)(C)C)cc4)CC3)cc2C)c1 [B2L048-01] | 3.9% | −5.0% |
| CCOc1cccc(-c2ccc(CN3CCN(c4ccc(C(=O)NS(=O)(=O)C(C)(C)C)cc4)CC3)c(CC)c2)c1 [B2L049-01, N-tert-Butylsulfonyl-4-[4-[[4-(3-ethoxyphenyl)-2-ethylphenyl]methyl]piperazin-1-yl]benzamide] | – | 0.0% |
| CCOc1cncc(-c2ccc(CN3CCN(c4ccc(C(=O)NS(=O)(=O)C(C)(C)C)cc4)CC3)c(CC)c2)c1 [B2L050-01] | 0.0% | 0.0% |
| CCOc1cncc(-c2ccc(CN3CCN(c4ccc(C(=O)NS(=O)(=O)C(C)(C)C)cc4)CC3)cc2F)c1 [B2L052-01] | 2.7% | 1.0% |
| CCOc1cccc(-c2ccc(CN3CCN(c4ccc(C(=O)NS(=O)(=O)C(C)(C)C)cc4)CC3)c(OC)c2)c1 [B2L053-01] | 0.0% | 0.0% |
| CCOc1cncc(-c2ccc(CN3CCN(c4ccc(C(=O)NS(=O)(=O)C(C)(C)C)cc4)CC3)c(OC)c2)c1 [B2L054-01] | 0.0% | 0.0% |
| CCOc1cncc(-c2cc(CN3CCN(c4ccc(C(=O)NS(=O)(=O)C(C)(C)C)cc4)CC3)cc(OCC)c2)c1 [B2L056-01] | 0.0% | 0.0% |
| CCOc1cncc(-c2cc(CN3CCN(c4ccc(C(=O)NS(=O)(=O)C(C)(C)C)cc4)CC3)cc(OC(C)C)c2)c1 [B2L058-01] | 0.0% | 0.0% |
| CCOc1cncc(-c2cc(OC)c(CN3CCN(c4ccc(C(=O)NS(=O)(=O)C(C)(C)C)cc4)CC3)c(OC)c2)c1 [B2L060-01, N-tert-Butylsulfonyl-4-[4-[[4-(5-ethoxypyridin-3-yl)-2,6-dimethoxyphenyl]methyl]piperazin-1-yl]benzamide] | – | 0.0% |
| CCOc1cccc(-c2cc(CN3CCN(c4ccc(C(=O)NS(=O)(=O)C(C)(C)C)cc4)CC3)cc(OC(F)(F)F)c2)c1 [B2L063-01, N-tert-Butylsulfonyl-4-[4-[[3-(3-ethoxyphenyl)-5-(trifluoromethoxy)phenyl]methyl]piperazin-1-yl]benzamide] | 0.0% | 0.0% |
| CCOc1cncc(-c2cc(CN3CCN(c4ccc(C(=O)NS(=O)(=O)C(C)(C)C)cc4)CC3)cc(OC(F)(F)F)c2)c1 [B2L064-01, N-tert-Butylsulfonyl-4-[4-[[3-(5-ethoxypyridin-3-yl)-5-(trifluoromethoxy)phenyl]methyl]piperazin-1-yl]benzamide] | 0.0% | 0.0% |
| CCOc1cccc(-c2csc(CN3CCN(c4ccc(C(=O)NS(=O)(=O)C(C)(C)C)cc4)CC3)c2)c1 [B2L067-01, N-tert-Butylsulfonyl-4-[4-[[4-(3-ethoxyphenyl)thiophen-2-yl]methyl]piperazin-1-yl]benzamide] | 0.0% | 0.0% |
| CCOc1cccc(C#Cc2ccccc2CN2CCN(c3ccc(C(=O)NS(=O)(=O)C(C)(C)C)cc3)CC2)c1 [B2L069-01, N-tert-Butylsulfonyl-4-[4-[[2-[2-(3-ethoxyphenyl)ethynyl]phenyl]methyl]piperazin-1-yl]benzamide] | 0.0% | 0.0% |
| CCOc1cncc(-c2ccccc2CN2CCN(c3ccc(C(=O)NS(=O)(=O)C(C)(C)C)nn3)CC2)c1 [B2L072-01, N-tert-Butylsulfonyl-6-[4-[[2-(5-ethoxypyridin-3-yl)phenyl]methyl]piperazin-1-yl]pyridazine-3-carboxamide] | −10.7% | 8.3% |
| CCOc1cccc(-c2ccc(CN3CCN(c4ccc(C(=O)NS(=O)(=O)C(C)(C)C)nn4)CC3)c(CC)c2)c1 [B2L075-01, N-tert-Butylsulfonyl-6-[4-[[4-(3-ethoxyphenyl)-2-ethylphenyl]methyl]piperazin-1-yl]pyridazine-3-carboxamide] | 0.0% | 33.9% |
| CCOc1cncc(-c2ccc(CN3CCN(c4ccc(C(=O)NS(=O)(=O)C(C)(C)C)nn4)CC3)c(CC)c2)c1 [B2L076-01, N-tert-Butylsulfonyl-6-[4-[[4-(5-ethoxypyridin-3-yl)-2-ethylphenyl]methyl]piperazin-1-yl]pyridazine-3-carboxamide] | 1.8% | −0.3% |

Next, values leading:

| ASMS ratio (%) (n = 1) | ASMS ratio (%) (n = 2) | SMILES |
| --- | --- | --- |
| 0.0% | 0.0% | CCOc1cccc(-c2ccc(CN3CCN(c4ccc(C(=O)NS(=O)(=O)C(C)(C)C)cc4)CC3)cc2F)c1 [B2L051-01, N-tert-Butylsulfonyl-4-[4-[[4-(3-ethoxyphenyl)-3-fluorophenyl]methyl]piperazin-1-yl]benzamide] |
| 0.0% | 0.0% | CCOc1cccc(-c2cc(CN3CCN(c4ccc(C(=O)NS(=O)(=O)C(C)(C)C)cc4)CC3)cc(OCC)c2)c1 [B2L055-01, N-tert-Butylsulfonyl-4-[4-[[3-ethoxy-5-(3-ethoxyphenyl)phenyl]methyl]piperazin-1-yl]benzamide] |
| 0.0% | 0.0% | CCOc1cccc(-c2cc(CN3CCN(c4ccc(C(=O)NS(=O)(=O)C(C)(C)C)cc4)CC3)cc(OC(C)C)c2)c1 [B2L057-01, N-tert-Butylsulfonyl-4-[4-[[3-(3-ethoxyphenyl)-5-propan-2-yloxyphenyl]methyl]piperazin-1-yl]benzamide] |
| 0.0% | 0.0% | CCOc1cccc(-c2cc(OC)c(CN3CCN(c4ccc(C(=O)NS(=O)(=O)C(C)(C)C)cc4)CC3)c(OC)c2)c1 [B2L059-01, N-tert-Butylsulfonyl-4-[4-[[4-(3-ethoxyphenyl)-2,6-dimethoxyphenyl]methyl]piperazin-1-yl]benzamide] |
| 4.6% | −11.1% | CCOc1cccc(-c2cc(CN3CCN(c4ccc(C(=O)NS(=O)(=O)C(C)(C)C)cc4)CC3)cc(C(F)(F)F)c2)c1 [B2L061-01, N-tert-Butylsulfonyl-4-[4-[[3-(3-ethoxyphenyl)-5-(trifluoromethyl)phenyl]methyl]piperazin-1-yl]benzamide] |
| 0.0% | 0.0% | CCOc1cncc(-c2cc(CN3CCN(c4ccc(C(=O)NS(=O)(=O)C(C)(C)C)cc4)CC3)cc(C(F)(F)F)c2)c1 [B2L062-01, N-tert-Butylsulfonyl-4-[4-[[3-(5-ethoxypyridin-3-yl)-5-(trifluoromethyl)phenyl]methyl]piperazin-1-yl]benzamide] |
| 0.0% | 0.0% | CCOc1cncc(-c2csc(CN3CCN(c4ccc(C(=O)NS(=O)(=O)C(C)(C)C)cc4)CC3)c2)c1 [B2L068-01, N-tert-Butylsulfonyl-4-[4-[[4-(5-ethoxypyridin-3-yl)thiophen-2-yl]methyl]piperazin-1-yl]benzamide] |
| 4.9% | −4.2% | CCOc1cncc(C#Cc2ccccc2CN2CCN(c3ccc(C(=O)NS(=O)(=O)C(C)(C)C)cc3)CC2)c1 [B2L070-01, N-tert-Butylsulfonyl-4-[4-[[2-[2-(5-ethoxypyridin-3-yl)ethynyl]phenyl]methyl]piperazin-1-yl]benzamide] |
| 1.2% | 0.0% | CCOc1cccc(-c2ccccc2CN2CCN(c3ccc(C(=O)NS(=O)(=O)C(C)(C)C)nn3)CC2)c1 [B2L071-01, N-tert-Butylsulfonyl-6-[4-[[2-(3-ethoxyphenyl)phenyl]methyl]piperazin-1-yl]pyridazine-3-carboxamide] |
| 0.0% | 0.0% | CCOc1cccc(-c2ccc(CN3CCN(c4ccc(C(=O)NS(=O)(=O)C(C)(C)C)nn4)CC3)cc2C)c1 [B2L073-01, N-tert-Butylsulfonyl-6-[4-[[4-(3-ethoxyphenyl)-3-methylphenyl]methyl]piperazin-1-yl]pyridazine-3-carboxamide] |
| −1.0% | 1.4% | CCOc1cncc(-c2ccc(CN3CCN(c4ccc(C(=O)NS(=O)(=O)C(C)(C)C)nn4)CC3)cc2C)c1 [B2L074-01, N-tert-Butylsulfonyl-6-[4-[[4-(5-ethoxypyridin-3-yl)-3-methylphenyl]methyl]piperazin-1-yl]pyridazine-3-carboxamide] |
